Read-outs that look alike come from different tables or passages of the source.
Assays:
[1] = cited from earlier work
BCRP1 = tested on: BCRP1; set-up: method as in Minocha et al., 2012; Boudou-Rouquette et al., 2016; settings: in vitro; ref Minocha et al., 2012; Boudou-Rouquette et al., 2016; cited from earlier work
MATE2-K = tested on: MATE2-K; set-up: method as in Sauzay et al., 2016; settings: ref Sauzay et al., 2016; cited from earlier work
CYP2B6 = settings: ref Food and Drug Administration, 2009; Yamada et al., 2020; cited from earlier work
[2] = ref Fink, 2020; cited from earlier work
Caco-2 cell = tested on: Caco-2 cell; set-up: method as in Food and Drug Administration, 2009; settings: ref Food and Drug Administration, 2009; cited from earlier work
[3] = ref Food and Drug Administration, 2009, cited from earlier work
[4] = ref Verheijen et al., 2017, cited from earlier work
[5] = cited from earlier work; for Solubility: ref Herbrink et al., 2018; for LogP: 2022
OATP1B1 = settings: ref Xu et al., 2010; cited from earlier work
UGT1A1 = settings: ref Xu et al., 2010; cited from earlier work
OCT2 = tested on: OCT2; set-up: method as in Sauzay et al., 2016; settings: ref Sauzay et al., 2016; cited from earlier work
[6] = Effect of NaTC (bile salt) concentration on solubility; type: physicochemical; settings: for solubility at 2 h: pH 5.5, read-out: Solubility at Fasted state
Procedure: After incubation of 2 h, 1 ml aliquot of each sample was withdrawn from the tube. The samples were filtered using a 0.22 μm filter, the first 0.8 ml was discarded, and the remaining 0.2 ml was analyzed by the HPLC. The specific experiments containing different conditions are as follows: • i) Solubility testing in simulated fasted and fed media
In this experiment, a final pH of 5.5 was used, representing a mean front luminal pH at fed state.

P-gp = tested on: P-gp; set-up: method as in Minocha et al., 2012; Boudou-Rouquette et al., 2016; settings: in vitro; ref Minocha et al., 2012; Boudou-Rouquette et al., 2016; cited from earlier work
CYP3A4 = settings: 2020, cited from earlier work
CYP3D6 = settings: ref Food and Drug Administration, 2009; Yamada et al., 2020; cited from earlier work

Cc1ccc(Nc2nccc(N(C)c3ccc4c(C)n(C)nc4c3)n2)cc1S(N)(=O)=O [PAZ, pazopanib]
Increase in AUC of PAZ ([1]; co-administration with ketoconazole, ref Van Leeuwen et al., 2014): approximately 66% | Decrease in AUC of PAZ ([1]; combined with carbamazepine, ref Van Leeuwen et al., 2014): 30% | Reduction of oral bioavailability ([1]; concomitant drugs that increase gastric pH, ref Budha et al., 2012): approximately 39% | Increase in AUC of PAZ ([1]; with lapatinib, ref Van Leeuwen et al., 2014): 59% | Substrate for BCRP1 (BCRP1): moderate substrate | Ki (MATE2-K): 3300 nM | Inducer of CYP2B6 (CYP2B6): moderate inducer | Permeability [2]: highly permeable | Papp, Caco-2 cell permeability (Caco-2 cell): 16.9 ✕10^−6 cm⋅s^−1 | Incidence of high blood pressure ([3]; Ctrough above 32 μg/ml): ~80% | Probability of ALT elevation ([3]; Ctrough above approximately 56 μg/ml): ~20% | Cmax threshold of clinical exposure-toxicity [3]: less than 56 μg/ml | Ctrough needed for sufficient clinical response [3]: above 15 μg/ml | Ctrough threshold of clinical exposure-toxicity [3]: < 32000 ng/mL | fup, fraction of free drug in plasma [4]: 0.011% ([Verheijen et al., 2017]) | fup, fraction of free drug in plasma ([4]; value used in the model): 0.00011 | Solubility ([5]; above pH 4.0): practically insoluble | Solubility ([5]; pH = 1.0): very slight solubility | Biopharmaceutics Classification System (BCS) class ([5]; ref Evaluation, 1997): class II | LogP ([5]; ref Krens et al.): 3.33 | LogP ([5]; ref PMDA): 3.65 | IC50 (OATP1B1): 790 nM | IC50 (UGT1A1): 1200 nM | Ki (OCT2): 3000 nM | Increase of solubility with NaTC ([6]; 15 mM compared with 30 mM NaTC): about 4 fold | solubility at 2 h ([6]; biorelevant medium with sodium taurocholate (NaTC), 37 °C, pH 5.5, fassgf or other biorelevant, thermodynamic from solid, NaTC 3.75 mM): 1.51 µg/mL | solubility at 2 h ([6]; biorelevant medium with sodium taurocholate (NaTC), 37 °C, pH 5.5, fassgf or other biorelevant, thermodynamic from solid, NaTC 15 mM): 6.93 µg/mL | solubility at 2 h ([6]; biorelevant medium with sodium taurocholate (NaTC), 37 °C, pH 5.5, fassgf or other biorelevant, thermodynamic from solid, NaTC 30 mM): 27.9 µg/mL | solubility at 2 h ([6]; biorelevant medium with sodium taurocholate (NaTC), pH 5.5, NaTC 7.5 mM): 3.02 µg/mL | solubility at 2 h ([6]; medium with 0 mM NaTC, 37 °C, pH 5.5, fassgf or other biorelevant, thermodynamic from solid, NaTC 0 mM): 0.36 µg/mL | Substrate for efflux transporter P-gp (P-gp): weak substrate | Inducer of CYP3A4 (CYP3A4; ref Food and Drug Administration, 2009, Yamada et al.): moderate inducer | Emax CYP3A4, maximum inductive effect (CYP3A4; ref Yamada et al.): 2.43 µM | Inhibitor of CYP3D6 (CYP3D6): weak inhibitor
